Laboratory results: US8410153B2, “Naphthalene isoxazoline invertebrate pest control agents” (E.I. du Pont de Nemours and Company, priority 2007, dated 2013)

Key:
Assay type in all cases: in vivo
[1] = tested on: diamondback moth (Plutella xylostella); assay: Test A: control of diamondback moth on radish plant, foliar spray; details: sprayed at 50 ppm, held 6 days
How it was run: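 Radish plants 12–14 days old, pre-infested with about 50 neonate larvae, sprayed at 50 ppm in 10% acetone/water with 300 ppm X-77 surfactant; three replicates. After 6 days at 25° C and 70% RH, feeding damage was scored visually and mortality counted.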

[2] = tested on: fall armyworm (Spodoptera frugiperda); assay: Test B: control of fall armyworm on corn (maize) plant, foliar spray; details: sprayed at 50 ppm
How it was run: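 4-5-day-old corn plants pre-infested with 10-15 1-day-old larvae on insect diet, then sprayed with compound at 50 ppm in 10% acetone/90% water with 300 ppm surfactant, three replicates. Held 6 days at 25° C, 70% RH; feeding damage assessed visually and mortality rated.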

[3] = tested on: western flower thrips (Frankliniella occidentalis); assay: Test E: control of western flower thrips on Soleil bean plant, contact and/or systemic; details: held 6 days
How it was run: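 5–7-day-old Soleil bean plants were sprayed at 250 or 50 ppm in 10% acetone/90% water with 300 ppm X-77 surfactant, three replicates. After drying 1 h, 22–27 adult thrips were added per unit. Mortality and plant damage were rated after 6 days at 25 °C and 45–55% RH.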

Measured: levels of control efficacy (20% or less feeding damage or 80% or more mortality)

CC(C)(C)NC(=O)CNC(=O)c1ccc(C2=NOC(c3cc(Cl)cc(Cl)c3)(C(F)(F)F)C2)c2ccccc12 (stereo not drawn) [Compound 24]
very good to excellent: [1] | [2] | [3]; sprayed at 250 ppm

CS(=O)(=O)CCNC(=O)c1ccc(C2=NOC(c3cc(C(F)(F)F)cc(C(F)(F)F)c3)(C(F)(F)F)C2)c2ccccc12 (racemic) [Compound 49]
very good to excellent: [1] | [2] | [3]; sprayed at 50 ppm | [3]; sprayed at 250 ppm

CC(C)(C)CNC(=O)CNC(=O)c1ccc(C2=NOC(c3cc(C(F)(F)F)cc(C(F)(F)F)c3)(C(F)(F)F)C2)c2ccccc12 (stereo not drawn) [Compound 103]
very good to excellent: [1] | [2] | [3]; sprayed at 50 ppm

CSCCNC(=O)c1ccc(C2=NOC(c3cc(Br)cc(C(F)(F)F)c3)(C(F)(F)F)C2)c2ccccc12 (racemic) [Compound 50]
very good to excellent: [1] | [2] | [3]; sprayed at 50 ppm | [3]; sprayed at 250 ppm

CC(NC(=O)c1ccc(C2=NOC(c3cc(C(F)(F)F)cc(C(F)(F)F)c3)(C(F)(F)F)C2)c2ccccc12)C(=O)NC(C)C(F)(F)F (stereo not drawn) [Compound 121]
very good to excellent: [1] | [2] | [3]; sprayed at 250 ppm

CCNC(=O)CNC(=O)c1ccc(C2=NOC(c3cc(Cl)cc(C(F)(F)F)c3)(C(F)(F)F)C2)c2ccccc12 (stereo not drawn) [Compound 119]
very good to excellent: [1] | [2] | [3]; sprayed at 50 ppm | [3]; sprayed at 250 ppm

COCCNC(=O)c1ccc(C2=NOC(c3cc(Cl)cc(Cl)c3)(C(F)(F)F)C2)c2ccccc12 (stereo not drawn) [Compound 28]
very good to excellent: [1] | [2] | [3]; sprayed at 50 ppm | [3]; sprayed at 250 ppm

CCSCCNC(=O)c1ccc(C2=NOC(c3cccc(C(F)(F)F)c3)(C(F)(F)F)C2)c2ccccc12 (racemic) [Compound 51]
very good to excellent: [1] | [2] | [3]; sprayed at 50 ppm | [3]; sprayed at 250 ppm

CSCC(C)NC(=O)c1ccc(C2=NOC(c3cc(C(F)(F)F)cc(C(F)(F)F)c3)(C(F)(F)F)C2)c2ccccc12 (mixture of isomers) [Compound 59]
very good to excellent: [1] | [2] | [3]; sprayed at 50 ppm | [3]; sprayed at 250 ppm

CC(C)NC(=O)CNC(=O)c1ccc(C2=NOC(c3cccc(C(F)(F)F)c3)(C(F)(F)F)C2)c2ccccc12 (racemic) [Compound 38]
very good to excellent: [1] | [2] | [3]; sprayed at 50 ppm | [3]; sprayed at 250 ppm

CS(=O)(=O)CCNC(=O)c1ccc(C2=NOC(c3cc(F)cc(C(F)(F)F)c3)(C(F)(F)F)C2)c2ccccc12 (racemic) [Compound 134]
very good to excellent: [1] | [2] | [3]; sprayed at 50 ppm | [3]; sprayed at 250 ppm

C[S+]([O-])CCNC(=O)c1ccc(C2=NOC(c3cc(C(F)(F)F)cc(C(F)(F)F)c3)(C(F)(F)F)C2)c2ccccc12 (stereo not drawn) [Compound 79]
very good to excellent: [1] | [2] | [3]; sprayed at 50 ppm | [3]; sprayed at 250 ppm

O=C(CNC(=O)c1ccc(C2=NOC(c3cc(C(F)(F)F)cc(C(F)(F)F)c3)(C(F)(F)F)C2)c2ccccc12)NCC(F)(F)F (racemic) [Compound 37]
very good to excellent: [1] | [2] | [3]; sprayed at 50 ppm | [3]; sprayed at 250 ppm

CC[S+]([O-])CCNC(=O)c1ccc(C2=NOC(c3cc(C(F)(F)F)cc(C(F)(F)F)c3)(C(F)(F)F)C2)c2ccccc12 (stereo not drawn) [Compound 98]
very good to excellent: [1] | [2] | [3]; sprayed at 50 ppm

CCCNC(=O)CNC(=O)c1ccc(C2=NOC(c3cc(Cl)cc(C(F)(F)F)c3)(C(F)(F)F)C2)c2ccccc12 (stereo not drawn) [Compound 117]
very good to excellent: [1] | [2] | [3]; sprayed at 50 ppm | [3]; sprayed at 250 ppm

CC(C)CNC(=O)C(C)NC(=O)c1ccc(C2=NOC(c3cc(C(F)(F)F)cc(C(F)(F)F)c3)(C(F)(F)F)C2)c2ccccc12 (stereo not drawn) [Compound 90]
very good to excellent: [1] | [2] | [3]; sprayed at 50 ppm

CC(C)NC(=O)C(C)NC(=O)c1ccc(C2=NOC(c3cc(C(F)(F)F)cc(C(F)(F)F)c3)(C(F)(F)F)C2)c2ccccc12 (mixture of isomers) [Compound 83]
very good to excellent: [1] | [2] | [3]; sprayed at 50 ppm | [3]; sprayed at 250 ppm

CC(C)NC(=O)C(C)NC(=O)c1ccc(C2=NOC(c3cc(C(F)(F)F)cc(C(F)(F)F)c3)(C(F)(F)F)C2)c2ccccc12 (stereo not drawn) [Compound 87]
very good to excellent: [1] | [2] | [3]; sprayed at 250 ppm

CCNC(=O)CNC(=O)c1ccc(C2=NOC(c3cc(Cl)cc(Cl)c3)(C(F)(F)F)C2)c2ccccc12 (stereo not drawn) [Compound 8]
very good to excellent: [1] | [2] | [3]; sprayed at 50 ppm | [3]; sprayed at 250 ppm

O=C(NCCO)c1ccc(C2=NOC(c3cc(Cl)cc(Cl)c3)(C(F)(F)F)C2)c2ccccc12 (stereo not drawn) [Compound 11]
very good to excellent: [1] | [2] | [3]; sprayed at 50 ppm | [3]; sprayed at 250 ppm

CC(C)CNC(=O)CNC(=O)c1ccc(C2=NOC(c3cc(Cl)cc(Cl)c3)(C(F)(F)F)C2)c2ccccc12 (stereo not drawn) [Compound 6]
very good to excellent: [1] | [2] | [3]; sprayed at 50 ppm | [3]; sprayed at 250 ppm

CC(NC(=O)c1ccc(C2=NOC(c3cc(C(F)(F)F)cc(C(F)(F)F)c3)(C(F)(F)F)C2)c2ccccc12)C(=O)NCC(C)(C)C (mixture of isomers) [Compound 124]
very good to excellent: [1] | [2] | [3]; sprayed at 250 ppm
